From PubChem BioAssay (NCI)
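Cells were grown in 96-well plates and exposed to each compound for 48 hours at five concentrations; endpoints were interpolated linearly between bracketing concentrations, or set to the highest concentration if not reached. GI50 marks 50% less growth. Definition used: TGI = concentration required for complete inhibition of growth.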

Experiments:
Experiment in all cases: DTP human tumour cell line panel, 48 h
BT-549 breast = system: BT-549 breast
HL-60(TB) leukemia = system: HL-60(TB) leukemia
K-562 leukemia = system: K-562 leukemia
KM12 colon = system: KM12 colon
SF-295 CNS = system: SF-295 CNS
SK-OV-3 ovarian = system: SK-OV-3 ovarian
T-47D breast = system: T-47D breast
U251 CNS = system: U251 CNS
UACC-62 melanoma = system: UACC-62 melanoma

Row | SMILES | TGI (BT-549 breast) | TGI (HL-60(TB) leukemia) | TGI (K-562 leukemia) | TGI (KM12 colon) | TGI (SF-295 CNS) | TGI (SK-OV-3 ovarian) | TGI (T-47D breast) | TGI (U251 CNS) | TGI (UACC-62 melanoma) | GI50 (BT-549 breast) | GI50 (HL-60(TB) leukemia) | GI50 (K-562 leukemia) | GI50 (KM12 colon) | GI50 (SF-295 CNS) | GI50 (SK-OV-3 ovarian) | GI50 (U251 CNS) | GI50 (UACC-62 melanoma)
1 | COc1ccc(N=Nc2ccc3oc(=O)c(C(=O)Nc4ccc(OC)cc4)cc3c2)cc1 | 39 µM | 30.8 µM | > 100 µM | 33.5 µM | 51.9 µM | 83.5 µM | 29.8 µM | 30 µM |  |  |  |  |  |  |  |  | 
2 | COc1ccc(C2Oc3cc(OC)c(O)cc3[C@@H]2C)cc1 (some centres undefined) |  | 47.4 µM | > 100 µM | > 100 µM | > 100 µM | > 100 µM |  | > 100 µM |  |  |  |  |  |  |  |  | 
3 | COc1cc(OC)cc(N(C)Cc2cnc3nc(N)nc(N)c3c2C)c1 | > 100 µM | > 100 µM | > 100 µM | > 100 µM | > 100 µM | > 100 µM | > 100 µM | > 100 µM | > 100 µM |  |  |  |  |  |  |  | 
4 | C[C@H]1C(=O)C2=C[C@H]1CCC(=O)[C@]1(C)CCCC(C)(C)[C@H]1C[C@H]2O | 94.5 µM | 39.7 µM | 33.4 µM | 52 µM | > 100 µM | > 100 µM | 32.9 µM | 28.4 µM | > 100 µM |  |  |  |  |  |  |  | 
5 | O=c1[nH]/c(=C/c2ccc(OCc3ccccc3)cn2)c(=O)[nH]/c1=C/c1cccnc1 | > 100 µM | 0.541 µM |  | > 36.8 µM | 1.65 µM | > 100 µM | > 100 µM | > 100 µM |  |  |  |  |  |  |  |  | 
6 | CCOc1c(OC)cc(CNNc2nccs2)cc1OC | > 100 µM | > 100 µM | > 100 µM | > 100 µM | > 100 µM |  | > 100 µM | > 100 µM |  |  |  |  |  |  |  |  | 
7 | Nc1cc(N)c2nc(-c3ccccc3)c(Sc3ccc(F)cc3)nc2c1 | 44.1 µM | > 100 µM | > 100 µM | 48.5 µM | 29.9 µM | 31.6 µM |  | 31.7 µM | 31.8 µM | 22 µM | 39.3 µM | 39.6 µM | 20.8 µM | 13.9 µM | 15.7 µM | 16.4 µM | 16.7 µM
8 | COCN1C(=O)[C@@H]2C[C@@H](OC/C=C/CBr)CN2C(=O)c2ccccc21 | > 100 µM | > 100 µM |  | 63.5 µM | 46.5 µM | 88.5 µM | 59 µM | 74.8 µM | 71.5 µM |  |  |  |  |  |  |  | 
9 | O=C1CSC(c2ccc(Cl)cc2)N1c1ccc(-n2c(-c3ccccc3)nc3ccccc3c2=O)cc1 (centres undefined) | > 100 µM |  | > 100 µM | > 100 µM | > 100 µM | > 100 µM | > 100 µM | > 100 µM | > 100 µM |  |  |  |  |  |  |  | 
10 | CC1=C2CC3=C(C)C(=O)O[C@H]3C[C@@H](C)[C@@H]2CC1 | > 100 µM | > 100 µM | > 100 µM | > 100 µM | > 100 µM | > 100 µM |  | > 100 µM | > 100 µM |  |  |  |  |  |  |  | 
11 | COc1cc(NS(C)(=O)=O)ccc1N1Cc2cnc3ccc4[nH]ccc1c4c23 | > 100 µM | > 100 µM | > 100 µM | > 100 µM | > 100 µM |  | 83.6 µM | > 100 µM | > 100 µM |  |  |  |  |  |  |  | 
12 | CC(C)(C)C(=O)C(C#N)C(=O)C(C)(C)C |  | > 100 µM | > 100 µM | > 100 µM | > 100 µM | > 100 µM | > 100 µM | > 100 µM |  |  |  |  |  |  |  |  | 
13 | COc1cccc(C(=O)C(O)c2cccc(OC)c2OC)c1OC (centres undefined) | > 100 µM | > 100 µM |  | > 100 µM | > 100 µM | > 100 µM | > 100 µM | > 100 µM | > 100 µM |  |  |  |  |  |  |  | 
14 | N#C/C(=C/NC(=S)Nc1ccc(S(N)(=O)=O)cc1)C(N)=O | > 100 µM | > 100 µM |  | > 100 µM | > 100 µM | > 100 µM |  | > 100 µM | > 100 µM |  |  |  |  |  |  |  | 
15 | C[N+]12C=CC=C1C(N1CCCC1)c1sc(-c3ccc(Cl)cc3)cc12 (centres undefined) | 22 µM |  |  | 33.4 µM | 43.7 µM | 32.8 µM | 35.4 µM | 24.5 µM | 28.4 µM |  |  |  |  |  |  |  | 
16 | O=C(c1ccccc1)c1cc(-c2ccccc2)c(-c2ccccc2)[nH]c(=O)c1=O | 53.1 µM | 40.4 µM | > 100 µM | > 100 µM | > 100 µM | > 100 µM |  | > 100 µM | 82.2 µM |  |  |  |  |  |  |  | 
17 | COc1ccc2[nH]c3c(C)c4ccnc(NCCCN(C)CCCNC(=O)NCCCN(C)CCCNc5nccc6c(C)c7[nH]c8ccc(OC)cc8c7c(C)c56)c4c(C)c3c2c1 | 4.99 µM | 1.2 µM | > 50 µM | > 10.1 µM |  | > 18.4 µM | 2.29 µM |  | > 11.6 µM |  |  |  |  |  |  |  | 
18 | c1ccc(C2(c3cc4ccccc4[nH]3)OCCO2)cc1 | > 100 µM |  | > 100 µM | > 100 µM | > 100 µM | > 100 µM | > 100 µM | > 100 µM | > 100 µM |  |  |  |  |  |  |  | 
19 | COc1nc(NC2OCC(OC(C)=O)C(OC(C)=O)C2OC(C)=O)c(N=C(C)C(C)=O)c(=O)n1C (centres undefined) |  | > 100 µM | > 100 µM | > 100 µM | > 100 µM |  |  | > 100 µM |  |  |  |  |  |  |  |  | 
20 | CC(C)(C)OC(=O)NCCNC(=O)OCc1ccccc1 | > 100 µM |  | > 100 µM | > 100 µM | > 100 µM | > 100 µM |  | > 100 µM | > 100 µM |  |  |  |  |  |  |  | 
21 | COC(=O)c1ccc2[nH]c3c(c2c1)CC(=O)Nc1ccccc1-3 | > 100 µM |  | 97.7 µM | > 100 µM | > 100 µM | > 100 µM | > 100 µM | 94.6 µM | > 100 µM |  |  |  |  |  |  |  | 
22 | Cc1[nH]c(=O)nc2c1C(=O)N(C(C)C)C(NC(C)C)S2 (centres undefined) |  | > 100 µM | > 100 µM | > 100 µM | > 100 µM | > 100 µM | > 100 µM | > 100 µM | > 100 µM |  |  |  |  |  |  |  | 
23 | Cc1c2cccc-2c(N(C)C)cc2c1[nH]c1ccccc12 | 8.19 µM | 5.74 µM |  | 7.98 µM | 25.3 µM | 15.1 µM | 5.09 µM | 4.01 µM |  |  |  |  |  |  |  |  | 
24 | COC[C@@H](N=Cc1ccc(OC)cc1)C(C)C | > 100 µM |  | > 100 µM | > 100 µM | > 100 µM | > 100 µM | > 100 µM | > 100 µM | > 100 µM |  |  |  |  |  |  |  | 
25 | CCC(c1ccc(N(C)C)cc1)C1NC(=S)NC1=O (centres undefined) |  | 46.3 µM | 59.6 µM | > 100 µM | > 100 µM | > 100 µM | > 100 µM | > 100 µM |  |  |  |  |  |  |  |  | 
26 | Cc1ccc(-c2c(C#N)c(O)n(NS(=O)(=O)c3ccccc3)c(=O)c2C#N)cc1 | > 100 µM | > 100 µM | > 100 µM | > 100 µM | > 100 µM | > 100 µM |  | > 100 µM | > 100 µM |  |  |  |  |  |  |  | 
